Reference: ChEMBL document CHEMBL1649074, “Aurora kinase inhibitors based on the imidazo[1,2-a]pyrazine core: fluorine and deuterium incorporation improve oral absorption and exposure” (J Med Chem, 2011)

Assays:
[1] = biological target: Ribosomal protein S6 kinase alpha-3 (Homo sapiens, UniProt P51812); assay: Inhibition of RSK2
[2] = biological target: Tyrosine-protein kinase JAK2 (Homo sapiens, UniProt O60674); assay: Inhibition of JAK2
[3] = biological target: Tyrosine-protein kinase Lck (Homo sapiens, UniProt P06239); assay: Inhibition of LCK
[4] = Clearance in cynomolgus monkey at 0.3 mg/kg, iv; type: ADME, organism-based, Macaca fascicularis; parameters: dose 0.3 mg/kg, route intravenous; settings: in vivo
[5] = AUC (0 to 24 hrs) in cynomolgus monkey at 0.3 mg/kg, iv; type: ADME, organism-based, Macaca fascicularis; parameters: time < 24 hr, dose 0.3 mg/kg, route intravenous; settings: plasma
[6] = (§1) AUC (0 to 24 hrs) in Beagle dog at 10 mg/kg, po; type: ADME, organism-based, Canis lupus familiaris, Plasma; parameters: time < 24 hr, dose 10 mg/kg, route oral; settings: beagle, plasma
[7] = Clearance in Beagle dog at 0.3 mg/kg, iv; type: ADME, organism-based, Canis lupus familiaris; parameters: dose 0.3 mg/kg, route intravenous; settings: in vivo
[8] = AUC (0 to 24 hrs) in Beagle dog at 0.3 mg/kg, iv; type: ADME, organism-based, Canis lupus familiaris; parameters: time < 24 hr, dose 0.3 mg/kg, route intravenous; settings: plasma
[9] = Clearance in Sprague-Dawley rat at 10 mg/kg, iv; type: ADME, organism-based; parameters: dose 10 mg/kg, route intravenous; settings: in vivo
[10] = Oral bioavailability in cynomolgus monkey at 10 mg/kg; type: ADME, organism-based, Macaca fascicularis; settings: in vivo
[11] = Oral AUC in cynomolgus monkey at 10 mg/kg, po; type: ADME, organism-based, Macaca fascicularis; parameters: dose 10 mg/kg, route oral; settings: in vivo
[12] = (§2) Oral bioavailability in Beagle dog at 10 mg/kg; type: ADME, organism-based, Canis lupus familiaris; settings: beagle, in vivo
[13] = Oral AUC in Beagle dog at 10 mg/kg, po; type: ADME, organism-based, Canis lupus familiaris; parameters: dose 10 mg/kg, route oral; settings: in vivo
[14] = AUC in CD1 mouse at 50 mg/kg, po; type: ADME, organism-based; parameters: dose 50 mg/kg, route oral; settings: plasma
[15] = Oral AUC in Sprague-Dawley rat at 30 mg/kg, po; type: ADME, organism-based; parameters: dose 30 mg/kg, route oral; settings: in vivo
Mus musculus = assay: Inhibition of Aurora B-mediated histone H3 phosphorylation in nude mouse xenografted with human A2780 cells at 100 mg/kg, po administered as single dose measured 2 hrs; type: functional; settings: A2780, 2 h
[16] = Clearance in cynomolgus monkey at 1 mg/kg, iv; type: ADME, organism-based, Macaca fascicularis; parameters: dose 1 mg/kg, route intravenous; settings: in vivo
[17] = AUC (0 to 24 hrs) in cynomolgus monkey at 1 mg/kg, iv; type: ADME, organism-based, Macaca fascicularis; parameters: time < 24 hr, dose 1 mg/kg, route intravenous; settings: plasma
Canis familiaris [18] = assay: as §1; type: ADME, organism-based, Canis lupus familiaris, Plasma; parameters: time < 24 hr, dose 10 mg/kg, route oral; settings: in vivo, 24 h
[19] = Clearance in Beagle dog at 1 mg/kg, iv; type: ADME, organism-based, Canis lupus familiaris; parameters: dose 1 mg/kg, route intravenous; settings: in vivo
Canis familiaris [20] = assay: AUC (0 to 24 hrs) in Beagle dog at 1 mg/kg, iv; type: ADME, organism-based, Canis lupus familiaris, Plasma; parameters: time < 24 hr, dose 1 mg/kg, route intravenous; settings: in vivo
Canis familiaris [21] = assay: as §2; type: ADME, organism-based, Canis lupus familiaris; settings: in vivo

Chain of Tyrosine-protein kinase JAK2 (O60674 whole entry): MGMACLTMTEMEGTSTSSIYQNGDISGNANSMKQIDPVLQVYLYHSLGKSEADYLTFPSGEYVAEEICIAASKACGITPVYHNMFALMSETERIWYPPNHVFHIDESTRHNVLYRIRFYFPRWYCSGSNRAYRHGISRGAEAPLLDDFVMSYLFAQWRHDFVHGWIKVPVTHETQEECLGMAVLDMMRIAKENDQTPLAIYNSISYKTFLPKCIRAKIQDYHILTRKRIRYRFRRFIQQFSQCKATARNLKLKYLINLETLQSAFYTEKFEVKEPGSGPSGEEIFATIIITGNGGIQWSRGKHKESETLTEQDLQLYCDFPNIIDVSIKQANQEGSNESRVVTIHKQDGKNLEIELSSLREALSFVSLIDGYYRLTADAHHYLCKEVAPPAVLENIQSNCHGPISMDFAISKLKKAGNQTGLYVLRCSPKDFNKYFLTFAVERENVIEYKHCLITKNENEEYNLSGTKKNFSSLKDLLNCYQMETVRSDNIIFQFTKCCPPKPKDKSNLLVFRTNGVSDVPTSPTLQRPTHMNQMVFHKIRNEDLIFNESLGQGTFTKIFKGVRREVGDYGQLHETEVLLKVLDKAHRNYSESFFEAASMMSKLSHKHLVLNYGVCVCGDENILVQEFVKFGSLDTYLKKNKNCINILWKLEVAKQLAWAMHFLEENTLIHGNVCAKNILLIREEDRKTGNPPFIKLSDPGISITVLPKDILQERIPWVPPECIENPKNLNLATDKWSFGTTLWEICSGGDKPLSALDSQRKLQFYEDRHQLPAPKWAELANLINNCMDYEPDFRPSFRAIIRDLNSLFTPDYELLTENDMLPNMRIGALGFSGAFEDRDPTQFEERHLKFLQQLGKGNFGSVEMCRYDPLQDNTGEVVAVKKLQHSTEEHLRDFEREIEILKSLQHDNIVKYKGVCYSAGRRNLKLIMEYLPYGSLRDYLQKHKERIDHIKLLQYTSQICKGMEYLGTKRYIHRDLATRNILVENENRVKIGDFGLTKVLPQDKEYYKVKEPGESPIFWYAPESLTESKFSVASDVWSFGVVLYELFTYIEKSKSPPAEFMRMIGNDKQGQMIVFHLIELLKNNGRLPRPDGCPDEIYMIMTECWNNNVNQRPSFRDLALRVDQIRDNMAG
Chain of Ribosomal protein S6 kinase alpha-3 (P51812 whole entry): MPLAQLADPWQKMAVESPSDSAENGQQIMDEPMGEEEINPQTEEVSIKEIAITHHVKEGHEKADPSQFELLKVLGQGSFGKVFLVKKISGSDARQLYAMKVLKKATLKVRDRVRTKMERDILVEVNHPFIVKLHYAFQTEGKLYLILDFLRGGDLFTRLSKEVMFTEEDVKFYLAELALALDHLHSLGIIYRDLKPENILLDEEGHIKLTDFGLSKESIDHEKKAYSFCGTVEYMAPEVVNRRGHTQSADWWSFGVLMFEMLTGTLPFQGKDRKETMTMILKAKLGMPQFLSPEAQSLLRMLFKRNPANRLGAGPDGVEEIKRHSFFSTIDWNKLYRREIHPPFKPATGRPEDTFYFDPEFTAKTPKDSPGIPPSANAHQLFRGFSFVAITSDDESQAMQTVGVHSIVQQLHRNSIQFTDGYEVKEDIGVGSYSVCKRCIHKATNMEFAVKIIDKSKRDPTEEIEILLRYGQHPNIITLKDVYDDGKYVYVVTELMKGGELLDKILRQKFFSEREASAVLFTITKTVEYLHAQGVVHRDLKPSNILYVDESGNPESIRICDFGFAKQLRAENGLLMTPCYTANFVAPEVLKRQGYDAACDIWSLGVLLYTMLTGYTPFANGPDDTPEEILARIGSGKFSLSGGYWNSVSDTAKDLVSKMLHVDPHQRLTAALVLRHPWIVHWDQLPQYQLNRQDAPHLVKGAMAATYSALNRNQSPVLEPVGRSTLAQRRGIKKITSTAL
Chain of Tyrosine-protein kinase Lck (P06239 whole entry): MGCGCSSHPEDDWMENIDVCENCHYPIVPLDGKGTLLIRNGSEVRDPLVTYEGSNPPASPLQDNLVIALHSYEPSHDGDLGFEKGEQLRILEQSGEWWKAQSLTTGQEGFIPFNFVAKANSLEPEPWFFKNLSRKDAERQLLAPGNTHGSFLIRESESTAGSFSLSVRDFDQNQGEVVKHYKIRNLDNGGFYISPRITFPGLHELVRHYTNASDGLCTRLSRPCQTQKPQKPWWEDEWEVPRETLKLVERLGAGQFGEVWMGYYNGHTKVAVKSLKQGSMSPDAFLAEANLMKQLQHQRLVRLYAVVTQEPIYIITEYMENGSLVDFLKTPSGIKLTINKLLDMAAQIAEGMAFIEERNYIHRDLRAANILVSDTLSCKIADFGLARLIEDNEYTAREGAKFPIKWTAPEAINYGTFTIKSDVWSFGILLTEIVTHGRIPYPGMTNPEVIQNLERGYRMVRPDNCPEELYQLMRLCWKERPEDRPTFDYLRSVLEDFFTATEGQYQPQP

Work on CCN(Cc1cc(Nc2nc(C)cn3c(-c4cn[nH]c4)cnc23)sn1)C(C)(C)CO yielded an IC50 [1] of over 100 nM, an IC50 [2] of over 100 nM and an IC50 [3] of under 1 nM.

Cc1cn2c(-c3cn[nH]c3)cnc2c(Nc2cc(CN3CCC(F)(F)C3)ns2)n1.Cl showed a clearance [4] of 18 mL/min/kg, an AUC(0-t) at 24 h [5] of 0.7 µM·h and an AUC(0-t) at 24 h [6] of 2.6 µM·h. For the same molecule, the clearance [7] was 31 mL/min/kg, the AUC(0-t) at 24 h [8] was 0.4 µM·h and the clearance [9] was 33 mL/min/kg. For the same molecule, the bioavailability [10] was 2%, the AUC [11] was 0.8 µM·h and the bioavailability [12] was 20%. It also gave an AUC [13] of 2.6 µM·h, an AUC [14] of 9.4 µM·h and an AUC [15] of 6.9 µM·h.

Molecule Cl.[2H]C([2H])(c1cc(Nc2nc(C)cn3c(-c4cn[nH]c4)cnc23)sn1)N1CCC(F)(F)C1 has an inhibition in vivo at 100 mg/kg (Mus musculus) of 83%, a clearance [16] of 4.2 mL/min/kg and an AUC(0-t) at 24 h [17] of 9.5 µM·h. It also gave an AUC (Canis familiaris [18]) of 3.1 µM·h, a clearance [19] of 4.5 mL/min/kg and an AUC (Canis familiaris [20]) of 9 µM·h. The clearance [9] was 6.3 mL/min/kg and the F (Canis familiaris [21]) was 33%.
